Reference: ChEMBL document CHEMBL1221228, “Norselic acids A-E, highly oxidized anti-infective steroids that deter mesograzer predation, from the Antarctic sponge Crella sp” (2009)

What was measured:
Assay type in all cases: functional
Escherichia coli [1] = assay: Antimicrobial activity against Escherichia coli 389 assessed as hazy zone of inhibition at 30 ug after 18 hrs by agar diffusion method; conditions: Escherichia coli, 389, 18 h; read-out: IZ
Escherichia coli [2] = assay: Antimicrobial activity against Escherichia coli 442 at 30 ug after 18 hrs by agar diffusion method; conditions: Escherichia coli, 442, 18 h; read-out: IZ
Escherichia coli [3] = assay: Antimicrobial activity against Escherichia coli 442 assessed as hazy zone of inhibition at 30 ug after 18 hrs by agar diffusion method; conditions: Escherichia coli, 442, 18 h; read-out: IZ
Escherichia coli [4] = assay: Antimicrobial activity against Escherichia coli 389 at 30 ug after 18 hrs by agar diffusion method; conditions: Escherichia coli, 389, 18 h; read-out: IZ
Candida albicans [5] = assay: Antimicrobial activity against Candida albicans 54 at 30 ug after 18 hrs by agar diffusion method; conditions: Candida albicans, 54, 18 h; read-out: IZ
Enterococcus faecium [6] = assay: Antimicrobial activity against vancomycin-resistant Enterococcus faecium 379 at 30 ug after 18 hrs by agar diffusion method; conditions: Enterococcus faecium, 379, 18 h; read-out: IZ
Staphylococcus aureus [7] = assay: Antimicrobial activity against methicillin sensitive Staphylococcus aureus 310 at 30 ug after 18 hrs by agar diffusion method; conditions: Staphylococcus aureus, 310, 18 h; read-out: IZ
Staphylococcus aureus [8] = assay: Antimicrobial activity against methicillin sensitive Staphylococcus aureus 375 at 30 ug after 18 hrs by agar diffusion method; conditions: Staphylococcus aureus, 375, 18 h; read-out: IZ
Leishmania = assay: Antileishmanial activity against Leishmania
Enterococcus faecium [9] = assay: Antimicrobial activity against vancomycin-resistant Enterococcus faecium 379 assessed as hazy zone of inhibition at 200 ug after 18 hrs by agar diffusion method; conditions: Enterococcus faecium, 379, 18 h; read-out: IZ
Staphylococcus aureus [10] = assay: Antimicrobial activity against methicillin sensitive Staphylococcus aureus 375 assessed as very hazy zone of inhibition at 200 ug after 18 hrs by agar diffusion method; conditions: Staphylococcus aureus, 375, 18 h; read-out: IZ
Escherichia coli [11] = assay: Antimicrobial activity against Escherichia coli 442 at 200 ug after 18 hrs by agar diffusion method; conditions: Escherichia coli, 442, 18 h; read-out: IZ
Escherichia coli [12] = assay: Antimicrobial activity against Escherichia coli 389 at 200 ug after 18 hrs by agar diffusion method; conditions: Escherichia coli, 389, 18 h; read-out: IZ
Staphylococcus aureus [13] = assay: Antimicrobial activity against methicillin-resistant Staphylococcus aureus 310 assessed as hazy zone of inhibition at 200 ug after 18 hrs by agar diffusion method; conditions: Staphylococcus aureus, 310, 18 h; read-out: IZ
Odontaster validus = assay: Reduction of food intake in Odontaster validus assessed as rejection of food pellets after 72 hrs relative to control; design: scale not given: the % may be the effect or the level left
Candida albicans [14] = assay: Antimicrobial activity against Candida albicans 54 at 200 ug after 18 hrs by agar diffusion method; conditions: Candida albicans, 54, 18 h; read-out: IZ
Staphylococcus aureus [15] = assay: Antimicrobial activity against methicillin sensitive Staphylococcus aureus 375 at 1 unit after 18 hrs by agar diffusion method
Candida albicans [16] = assay: Antimicrobial activity against Candida albicans 54 at 1 unit after 18 hrs by agar diffusion method
Staphylococcus aureus [17] = assay: Antimicrobial activity against methicillin sensitive Staphylococcus aureus 310 at 1 unit after 18 hrs by agar diffusion method
Staphylococcus aureus [18] = assay: Antimicrobial activity against methicillin sensitive Staphylococcus aureus 375 assessed as hazy zone of inhibition at 1 unit after 18 hrs by agar diffusion method
Escherichia coli [19] = assay: Antimicrobial activity against Escherichia coli 442 at 1 unit after 18 hrs by agar diffusion method
Enterococcus faecium [20] = assay: Antimicrobial activity against vancomycin-resistant Enterococcus faecium 379 at 1 unit after 18 hrs by agar diffusion method
Escherichia coli [21] = assay: Antimicrobial activity against Escherichia coli 389 at 5 ug after 18 hrs by agar diffusion method; conditions: Escherichia coli, 389, 18 h; read-out: IZ
Candida albicans [22] = assay: Antimicrobial activity against Candida albicans 54 at 5 ug after 18 hrs by agar diffusion method; conditions: Candida albicans, 54, 18 h; read-out: IZ
Escherichia coli [23] = assay: Antimicrobial activity against Escherichia coli 442 at 5 ug after 18 hrs by agar diffusion method; conditions: Escherichia coli, 442, 18 h; read-out: IZ

CO[C@@]1(NC(=O)Cc2cccs2)C(=O)N2C(C(=O)O)=C(COC(N)=O)CS[C@@H]21 [CEFOXITIN]
zone of inhibition at 30 µg/disc (Escherichia coli [1]): 26 mm
zone of inhibition at 30 µg/disc (Escherichia coli [2]): 18 mm
zone of inhibition at 30 µg/disc (Escherichia coli [3]): 26 mm
zone of inhibition at 30 µg/disc (Escherichia coli [4]): 22 mm
zone of inhibition at 30 µg/disc (Candida albicans [5]): 0 mm

NC[C@H]1O[C@H](O[C@H]2[C@H](O)[C@@H](O[C@H]3O[C@H](CO)[C@@H](O)[C@H](N)[C@H]3O)[C@H](N)C[C@@H]2N)[C@H](O)[C@@H](O)[C@@H]1O [KANAMYCIN]
zone of inhibition at 30 µg/disc (Escherichia coli [1]): 37 mm
zone of inhibition at 30 µg/disc (Enterococcus faecium [6]): 10 mm
zone of inhibition at 30 µg/disc (Staphylococcus aureus [7]): 0 mm
zone of inhibition at 30 µg/disc (Escherichia coli [4]): 21 mm
zone of inhibition at 30 µg/disc (Staphylococcus aureus [8]): 15 mm
zone of inhibition at 30 µg/disc (Candida albicans [5]): 0 mm

C=C(CC[C@@H](C)[C@H]1CC[C@H]2[C@@H]3CCC4=CC(=O)C=C[C@]4(C)[C@H]3CC[C@]12C(=O)O)C(C)C [NORSELIC ACI C]
Activity (Leishmania): 2.6 µM

C=C(C)[C@@](O)(CC)CC[C@@H](C)[C@H]1CC[C@H]2[C@@H]3C=CC4=CC(=O)C=C[C@]4(C)[C@H]3CC[C@]12C(=O)O [NORSELIC ACID A]
zone of inhibition at 200 µg/disc (Enterococcus faecium [9]): 8 mm
zone of inhibition at 200 µg/disc (Staphylococcus aureus [10]): 8 mm
zone of inhibition at 200 µg/disc (Escherichia coli [11]): 0 mm
zone of inhibition at 200 µg/disc (Escherichia coli [12]): 0 mm
Activity (Leishmania): 2.5 µM
zone of inhibition at 200 µg/disc (Staphylococcus aureus [13]): 9 mm
Activity (Odontaster validus): 35%
zone of inhibition at 200 µg/disc (Candida albicans [14]): 8 mm

C=C(C)[C@@](O)(CC)CC[C@@H](C)[C@H]1CC[C@H]2[C@@H]3CC[C@H]4CC(=O)C=C[C@]4(C)[C@H]3CC[C@]12C(=O)O [NORSELIC ACID B]
Activity (Leishmania): 2.4 µM

C=C(C)[C@@](O)(CC)CC[C@@H](C)[C@H]1CC[C@H]2[C@@H]3CCC4=CC(=O)CC[C@]4(C)[C@H]3CC[C@]12C(=O)O [NORSELIC ACID D]
Activity (Leishmania): 2 µM

C=C(C)[C@@](CC)(CC[C@@H](C)[C@H]1CC[C@H]2[C@@H]3C=CC4=CC(=O)C=C[C@]4(C)[C@H]3CC[C@]12C(=O)O)OC(C)=O [NORSELIC ACID E]
Activity (Leishmania): 3.6 µM

Cc1onc(-c2ccccc2)c1C(=O)N[C@@H]1C(=O)N2[C@@H]1SC(C)(C)[C@@H]2C(=O)O [OXACILLIN]
zone of inhibition at 30 µg/disc (Escherichia coli [1]): 8 mm
inhibition zone (IZ) (Staphylococcus aureus [15]): 18 mm
inhibition zone (IZ) (Candida albicans [16]): 0 mm
inhibition zone (IZ) (Staphylococcus aureus [17]): 0 mm
inhibition zone (IZ) (Staphylococcus aureus [18]): 22 mm
inhibition zone (IZ) (Escherichia coli [19]): 0 mm
inhibition zone (IZ) (Enterococcus faecium [20]): 0 mm

CO[C@H]1/C=C/O[C@@]2(C)Oc3c(C)c(O)c4c(O)c(c(/C=N/N5CCN(C)CC5)c(O)c4c3C2=O)NC(=O)/C(C)=C\C=C\[C@H](C)[C@H](O)[C@@H](C)[C@@H](O)[C@@H](C)[C@H](OC(C)=O)[C@@H]1C [RIFAMPIN]
zone of inhibition at 5 µg/disc (Escherichia coli [21]): 20 mm
zone of inhibition at 5 µg/disc (Candida albicans [22]): 0 mm
zone of inhibition at 5 µg/disc (Escherichia coli [23]): 6 mm

CN[C@H](CC(C)C)C(=O)N[C@H]1C(=O)N[C@@H](CC(N)=O)C(=O)N[C@H]2C(=O)N[C@H]3C(=O)N[C@H](C(=O)N[C@H](C(=O)O)c4cc(O)cc(O)c4-c4cc3ccc4O)[C@H](O)c3ccc(c(Cl)c3)Oc3cc2cc(c3O[C@@H]2O[C@H](CO)[C@@H](O)[C@H](O)[C@H]2O[C@H]2C[C@](C)(N)[C@H](O)[C@H](C)O2)Oc2ccc(cc2Cl)[C@H]1O [VANCOMYCIN]
zone of inhibition at 30 µg/disc (Escherichia coli [1]): 25 mm
zone of inhibition at 30 µg/disc (Enterococcus faecium [6]): 0 mm
zone of inhibition at 30 µg/disc (Staphylococcus aureus [7]): 15 mm
zone of inhibition at 30 µg/disc (Escherichia coli [4]): 17 mm
zone of inhibition at 30 µg/disc (Staphylococcus aureus [8]): 19 mm
zone of inhibition at 30 µg/disc (Candida albicans [5]): 0 mm
